What was measured:
[1] = Kinetic aqueous solubility (KSol), HPLC-UV; type: physicochemical; conditions: PBS buffer pH 7.4, 100 μM solution with 1% DMSO, HPLC with UV detection
[2] = target: T1, GST-tagged Eg5 motor domain (Homo sapiens, UniProt P52732); test: ADP-Glo Eg5 assay (4.8 μM ATP); type: biochemical; conditions: preformed microtubules, 4.8 μM ATP (Table 4)
T1 construct: 4 nM GST-tagged Eg5 motor domain protein (Cytoskeleton, EG01); purchased Cytoskeleton EG01
T1 sequence (P52732 18-359 limits assumed): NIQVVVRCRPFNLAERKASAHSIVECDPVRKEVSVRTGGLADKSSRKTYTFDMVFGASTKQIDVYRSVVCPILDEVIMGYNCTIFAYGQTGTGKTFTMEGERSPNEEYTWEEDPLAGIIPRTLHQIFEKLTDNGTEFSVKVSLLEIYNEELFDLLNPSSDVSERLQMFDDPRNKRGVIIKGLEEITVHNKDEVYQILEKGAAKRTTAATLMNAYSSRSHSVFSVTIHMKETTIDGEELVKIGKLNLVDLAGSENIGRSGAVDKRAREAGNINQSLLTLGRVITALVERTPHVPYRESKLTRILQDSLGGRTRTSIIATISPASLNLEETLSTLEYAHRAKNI
Protocol: (§1) The HSET or Eg5 ATPase activity was measured using the ADP-Glo Kinase Assay kit (Promega, V9102). The assays were run using final concentrations of 5 nM full-length human N-terminal His-tag HSET or 4 nM GST-tagged Eg5 motor domain protein (Cytoskeleton, EG01) and an assay buffer containing 20 mM HEPES pH 6.8, 10 mM MgCl2, 0.25 mM EGTA, 0.4 mM Triton X-100, and 1 mM DTT. Preformed microtubules (Universal Biologicals Cambridge, bovine MT001-XL, or porcine MT002-XL), which were reconstituted in 15 mM PIPES pH 7, 1 mM MgCl2, and 20 μM paclitaxel, were present at a final assay concentration of 70 μg/mL. A reaction volume of 5 μL was used in Proxiplate 384 plus white assay plates (PerkinElmer, 6008280). To measure compound inhibition, 100 nL of compound dissolved in DMSO or DMSO alone was preincubated with the HSET and microtubules for 10 min before 3 μM Ultra-Pure ATP was added to start the ATPase reaction for the 3 μM ATP HSET assay. For the 500 μM ATP HSET assay, the addition of 500 μM Ultra-Pure ATP was used. For the Eg5 ATPase assay, 4.8 μM Ultra-Pure ATP was used. All reactions were incubated at 25 °C for 80 min and then stopped by the addition of 5 μL of the ADP-Glo reagent. 10 μL of Kinase Detection Reagent was then added after a further 45 min of incubation. The luminescence was read after 45 min on a PheraStar FSX plate reader (BMG Labtech). The data processing was performed using Dotmatics Studies software package. Percentage inhibition was determined based on normalization to high controls (0% inhibition, all reagents with 100 nL of DMSO alone) and low controls (100% inhibition […], without HSET). The IC50 values for each compound were determined using a four-parameter logistic curve fit of % inhibition versus concentration.

[3] = target: T2, recombinant full-length HSET (Homo sapiens, UniProt Q9BW19); test: ADP-Glo HSET assay (500 μM ATP); type: biochemical; conditions: high ATP concentration of 500 μM; single determination or mean of two
T2 construct: 5 nM full-length human N-terminal His-tag HSET; His-tag (N)
T2 sequence (Q9BW19 1-673): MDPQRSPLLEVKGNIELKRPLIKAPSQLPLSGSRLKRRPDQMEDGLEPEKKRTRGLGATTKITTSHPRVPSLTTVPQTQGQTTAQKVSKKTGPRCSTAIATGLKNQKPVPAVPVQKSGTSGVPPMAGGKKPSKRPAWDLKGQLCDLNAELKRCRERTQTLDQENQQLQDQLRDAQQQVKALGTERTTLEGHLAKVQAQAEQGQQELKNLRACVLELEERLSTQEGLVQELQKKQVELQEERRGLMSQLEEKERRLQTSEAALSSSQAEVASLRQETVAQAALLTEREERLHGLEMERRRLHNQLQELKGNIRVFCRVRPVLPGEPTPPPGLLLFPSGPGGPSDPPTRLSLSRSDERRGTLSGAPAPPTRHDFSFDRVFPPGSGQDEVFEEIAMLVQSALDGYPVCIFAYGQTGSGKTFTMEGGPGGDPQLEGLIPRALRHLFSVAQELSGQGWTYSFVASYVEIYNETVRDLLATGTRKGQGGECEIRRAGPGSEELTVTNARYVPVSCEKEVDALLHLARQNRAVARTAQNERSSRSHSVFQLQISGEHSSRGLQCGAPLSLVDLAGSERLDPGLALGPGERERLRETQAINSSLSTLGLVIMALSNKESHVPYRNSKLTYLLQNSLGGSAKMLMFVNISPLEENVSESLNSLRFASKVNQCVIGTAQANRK
Protocol: as §1

KSol data [1] [µM]	IC50 [2] [µM]	IC50 [3] [µM]	Structure (SMILES)
>90	> 200	0.066	CCCOC(=O)c1sc(NC(=O)C[C@H](CCCNC)NC(=O)c2cccc(-c3noc(C)n3)c2)nc1C [Compound 35, Propyl (S)-4-Methyl-2-(3-(3-(5-methyl-1,2,4-oxadiazol-3-yl)benzamido)-6-(methylamino)hexanamido)thiazole-5-carboxylate]
>90	> 200	0.09	CCCOC(=O)c1sc(NC(=O)C[C@H](CCCN(C)C)NC(=O)c2cccc(-c3noc(C)n3)c2)nc1C [Compound 36, Propyl (S)-2-(6-(Dimethylamino)-3-(3-(5-methyl-1,2,4-oxadiazol-3-yl)benzamido)hexanamido)-4-methylthiazole-5-carboxylate]
1.8			CCCOC(=O)c1sc(NC(=O)C[C@H](CCCN(C)C(=O)O[C@@H]2CC/C=C/CCC2)NC(=O)c2cccc(-c3noc(C)n3)c2)nc1C [Compound 38, Propyl 2-((S)-6-(((((S,E)-Cyclooct-4-en-1-yl)oxy)carbonyl)(methyl)amino)-3-(3-(5-methyl-1,2,4-oxadiazol-3-yl)benzamido)hexanamido)-4-methylthiazole-5-carboxylate]
	> 200	0.051	CCCOC(=O)c1sc(NC(=O)CCNC(=O)c2cccc(-c3noc(C)n3)c2)nc1C [Compound 32, Propyl 4-Methyl-2-(3-(3-(5-methyl-1,2,4-oxadiazol-3-yl)benzamido)propanamido)thiazole-5-carboxylate]
